Here are results for 20 compounds from patent publication US12606541B2, “PPARg modulators and methods of use” (Eisai R&D Management Co., Ltd., priority 2020, dated 2026).

Assay [1] concerns UM-UC-9 engineered cells. Briefly: Cell proliferation / short-term viability assay, CellTiter-Glo 144 h. In kind it is cell-based, human. Particulars: read-out: CTGlo 144 h UMUC9.5, G150. The procedure, abridged:
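UM-UC-9 engineered assay-ready cells seeded at 500 cells/well in high-glucose DMEM/10% FBS, treated from dose-response plates, grown at 37° C, 5% CO2. CellTiter-Glo 2.0 luminescence read on day 7, with a day-0 pretreatment plate as T0 reference and DMSO wells as negative control.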
On the technique in general: In ATP-based viability assays light output follows the ATP content of the culture.

The target of assay [2] is T1, His6-TEV-PPARγ-(234-505) (Homo sapiens, UniProt P37231).
T1 construct: The His6-TEV-PPARγ-(234-505) protein for assay was expressed and purified; TEV cleavage site (N); made in house
T1 sequence (P37231 234-505): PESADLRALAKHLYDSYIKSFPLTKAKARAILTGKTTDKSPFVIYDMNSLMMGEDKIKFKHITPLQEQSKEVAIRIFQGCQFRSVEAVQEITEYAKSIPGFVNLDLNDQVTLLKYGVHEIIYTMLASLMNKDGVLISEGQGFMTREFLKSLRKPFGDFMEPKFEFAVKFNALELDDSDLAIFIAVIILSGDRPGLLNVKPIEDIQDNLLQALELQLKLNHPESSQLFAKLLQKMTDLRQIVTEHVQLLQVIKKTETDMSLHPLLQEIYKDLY
Briefly: TR-FRET Assay to Measure Co-R Peptide Recruitment to PPARγ. Type of assay: biochemical. As to conditions: Co-R peptide (SMRT-ID2) recruitment; top final concentration 20 μM; read-out: TR-FRET i-Ag; AC50. The procedure, abridged:
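His-tagged PPARγ (or controls) was preincubated with compound for 20 minutes at room temperature, then 5 nM anti-His terbium antibody and 200 nM FITC-labeled SMRT-ID2 corepressor peptide (final) were added for a further hour. TR-FRET signal was normalized to percent response using 500 nM T0070907 and DMSO controls.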
In general terms: TR-FRET usually uses a lanthanide donor and a delayed reading to cut background.

Like-named read-outs stand apart in the source and are kept apart here.

Consider `COc1cc(-c2cc(C(=O)N3CCC(C(=O)NCC4CCNCC4(F)F)CC34CC4)n[nH]2)c(F)cn1` (mixture of isomers) [Example 511, (S)—N—(((S)-3,3-difluoropiperidin-4-yl)methyl)-4-(5-(5-fluoro-2-methoxypyridin-4-yl)-1H-pyrazole-3-carbonyl)-4-azaspiro[2.5]octane-7-carboxamide and (S)—N—(((R)-3,3-difluoropiperidin-4-yl)methyl)-4-(5-(5-fluoro-2-methoxypyridin-4-yl)-1H-pyrazole-3-carbonyl)-4-azaspiro[2.5]octane-7-carboxamide], for which the IC50 in assay [1] amounted to 95.2 nM. Besides, the AC50 in assay [2] was found to be 10.6 nM.
In the same order, the values of `COc1cc(-c2cc(C(=O)N3CCC(C(=O)Nc4cnn5c4CC(O)CC5)CC34CC4)n[nH]2)c(F)cn1` (mixture of isomers) [Example 514, (S)-4-(5-(5-fluoro-2-methoxypyridin-4-yl)-1H-pyrazole-3-carbonyl)-N—((S)-5-hydroxy-4,5,6,7-tetrahydropyrazolo[1,5-a]pyridin-3-yl)-4-azaspiro[2.5]octane-7-carboxamide and (S)-4-(5-(5-fluoro-2-methoxypyridin-4-yl)-1H-pyrazole-3-carbonyl)-N—((R)-5-hydroxy-4,5,6,7-tetrahydropyrazolo[1,5-a]pyridin-3-yl)-4-azaspiro[2.5]octane-7-carboxamide] are over 10000 nM and 33.7 nM.
`COc1cc(-c2cc(C(=O)N3CCC(C(=O)NC45CC(CO)(C4)OC5C)CC34CC4)n[nH]2)c(F)cn1` (mixture of isomers) [Example 518, (S)-4-(5-(5-fluoro-2-methoxypyridin-4-yl)-1H-pyrazole-3-carbonyl)-N—((R)-1-(hydroxymethyl)-3-methyl-2-oxabicyclo[2.1.1]hexan-4-yl)-4-azaspiro[2.5]octane-7-carboxamide and (S)-4-(5-(5-fluoro-2-methoxypyridin-4-yl)-1H-pyrazole-3-carbonyl)-N—((S)-1-(hydroxymethyl)-3-methyl-2-oxabicyclo[2.1.1]hexan-4-yl)-4-azaspiro[2.5]octane-7-carboxamide]: the IC50 in assay [1] stood at 4050 nM. In addition, in assay [2], the AC50 is 149 nM.
As to `COc1cc(-c2cc(C(=O)N3CCC(C(=O)NC4CCCC(O)(C(F)(F)F)C4)CC34CC4)n[nH]2)c(F)cn1` (mixture of isomers) [Example 524], the IC50 in assay [1] was 341 nM. Further, in assay [2], the AC50 is 128 nM.
For the compound `CCC1CCC(NC(=O)C2CCN(C(=O)c3cc(-c4ccnc(OC)c4)[nH]n3)CC2)CC1` (racemic) [Example 108, N-(4-ethylcyclohexyl)-1-(5-(2-methoxypyridin-4-yl)-1H-pyrazole-3-carbonyl)piperidine-4-carboxamide], in assay [1] (Homo sapiens, UM-UC-9, 144 h), the IC50 worked out at 830 nM. Besides, in assay [2], the AC50 is 178 nM.
The like results for `COc1cc(-c2cc(C(=O)N3CCC(C(=O)NC4COCc5ccccc54)CC3)n[nH]2)c(Cl)cn1` (racemic) [Example 132, 1-(5-(5-chloro-2-methoxypyridin-4-yl)-1H-pyrazole-3-carbonyl)-N-(isochroman-4-yl)piperidine-4-carboxamide] were, in that order, 136 nM and 24.6 nM.
In the same order, the values of `COc1cc(-c2cc(C(=O)N3CCC(C(=O)NCC4CC(C)(C)O4)CC3)n[nH]2)c(Cl)cn1` (racemic) [Example 135, 1-(5-(5-chloro-2-methoxypyridin-4-yl)-1H-pyrazole-3-carbonyl)-N-((4,4-dimethyloxetan-2-yl)methyl)piperidine-4-carboxamide] are 2650 nM and 483 nM.
The like results for `COc1cc(-c2cc(C(=O)N3CCC(C(=O)NC4CCC(F)(F)C4)CC3)n[nH]2)c(Cl)cn1` (racemic) [Example 175, 1-(5-(5-chloro-2-methoxypyridin-4-yl)-1H-pyrazole-3-carbonyl)-N-(3,3-difluorocyclopentyl)piperidine-4-carboxamide] were, in that order, 1640 nM and 349 nM.
In the case of `COc1cc(-c2cc(C(=O)N3CCC(C(=O)NCC4COC(C)(C)O4)CC3)n[nH]2)c(Cl)cn1` (racemic) [Example 185, 1-(5-(5-chloro-2-methoxypyridin-4-yl)-1H-pyrazole-3-carbonyl)-N-((2,2-dimethyl-1,3-dioxolan-4-yl)methyl)piperidine-4-carboxamide], the IC50 in assay [1] (Homo sapiens, UM-UC-9, 144 h) was 1550 nM. Moreover, the AC50 in assay [2] stood at 735 nM.
With `COc1cc(-c2cc(C(=O)N3CCC(C(=O)NC4CCN(C)c5ccccc54)CC3)n[nH]2)c(Cl)cn1` (racemic) [Example 186, 1-(5-(5-chloro-2-methoxypyridin-4-yl)-1H-pyrazole-3-carbonyl)-N-(1-methyl-1,2,3,4-tetrahydroquinolin-4-yl)piperidine-4-carboxamide], the IC50 in assay [1] (Homo sapiens, UM-UC-9, 144 h) came out at 339 nM. The AC50 in assay [2] was determined as 202 nM.
As to `COc1cc(-c2cc(C(=O)N3CCC(C(=O)NC4CCCc5cnccc54)CC3)n[nH]2)c(Cl)cn1` (racemic) [Example 191, 1-(5-(5-chloro-2-methoxypyridin-4-yl)-1H-pyrazole-3-carbonyl)-N-(5,6,7,8-tetrahydroisoquinolin-5-yl)piperidine-4-carboxamide], in assay [1] (Homo sapiens, UM-UC-9, 144 h), the IC50 is 2010 nM. Also, the AC50 in assay [2] stood at 838 nM.
As to `COc1cc(-c2cc(C(=O)N3CCC(C(=O)NC4CCOc5ccc(F)cc54)CC3)n[nH]2)c(Cl)cn1` (racemic) [Example 195, 1-(5-(5-chloro-2-methoxypyridin-4-yl)-1H-pyrazole-3-carbonyl)-N-(6-fluorochroman-4-yl)piperidine-4-carboxamide], the IC50 in assay [1] (Homo sapiens, UM-UC-9, 144 h) came out at 348 nM. Also, the AC50 in assay [2] was 212 nM.
On to `COc1cc(-c2cc(C(=O)N3CCC(C(=O)NC4CCN(c5ccccc5)C4=O)CC3)n[nH]2)c(Cl)cn1` (racemic) [Example 207, 1-(5-(5-chloro-2-methoxypyridin-4-yl)-1H-pyrazole-3-carbonyl)-N-(2-oxo-1-phenylpyrrolidin-3-yl)piperidine-4-carboxamide], for which the IC50 in assay [1] (Homo sapiens, UM-UC-9, 144 h) came out at 5670 nM. Moreover, the AC50 in assay [2] was determined as 889 nM.
The like results for `COc1cc(-c2cc(C(=O)N3CCC(C(=O)NC4COC(C)(C)C4)CC3)n[nH]2)c(Cl)cn1` (racemic) [Example 213, 1-(5-(5-chloro-2-methoxypyridin-4-yl)-1H-pyrazole-3-carbonyl)-N (5,5-dimethyltetrahydrofuran-3-yl)piperidine-4-carboxamide] were, in that order, 1640 nM and 571 nM.
The like results for `COc1cc(-c2cc(C(=O)N3CCC(C(=O)NCC4CC(F)(F)CO4)CC3)n[nH]2)c(Cl)cn1` (racemic) [Example 220, 1-(5-(5-chloro-2-methoxypyridin-4-yl)-1H-pyrazole-3-carbonyl)-N-((4,4-difluorotetrahydrofuran-2-yl)methyl)piperidine-4-carboxamide] were, in that order, 2130 nM and 286 nM.
The like results for `COc1cc(-c2cc(C(=O)N3CCC(C(=O)NC4CCN(c5ccccc5F)C4)CC3)n[nH]2)c(Cl)cn1` (racemic) [Example 222, 1-(5-(5-chloro-2-methoxypyridin-4-yl)-1H-pyrazole-3-carbonyl)-N-(1-(2-fluorophenyl)pyrrolidin-3-yl)piperidine-4-carboxamide] were, in that order, 208 nM and 18.5 nM.
For `COc1cc(-c2cc(C(=O)N3CCC(C(=O)NC4CCCc5nc(C)ncc54)CC3)n[nH]2)c(Cl)cn1` (racemic) [Example 224, 1-(5-(5-chloro-2-methoxypyridin-4-yl)-1H-pyrazole-3-carbonyl)-N-(2-methyl-5,6,7,8-tetrahydroquinazolin-5-yl)piperidine-4-carboxamide], the IC50 in assay [1] (Homo sapiens, UM-UC-9, 144 h) came out at 5180 nM. Further, the AC50 in assay [2] is 554 nM.
The like results for `COc1cc(-c2cc(C(=O)N3CCC(C(=O)NC4CN(C)Cc5ccccc54)CC3)n[nH]2)c(Cl)cn1` (racemic) [Example 227, 1-(5-(5-chloro-2-methoxypyridin-4-yl)-1H-pyrazole-3-carbonyl)-N-(2-methyl-1,2,3,4-tetrahydroisoquinolin-4-yl)piperidine-4-carboxamide] were, in that order, 5960 nM and 947 nM.
For `COc1cc(-c2cc(C(=O)N3CCC(C(=O)NC4CS(=O)(=O)N(C)c5ccccc54)CC3)n[nH]2)c(Cl)cn1` (racemic) [Example 231, 1-(5-(5-chloro-2-methoxypyridin-4-yl)-1H-pyrazole-3-carbonyl)-N-(1-methyl-2,2-dioxido-3,4-dihydro-1H-benzo[c][1,2]thiazin-4-yl)piperidine-4-carboxamide], the IC50 in assay [1] (Homo sapiens, UM-UC-9, 144 h) was determined as 5440 nM. In assay [2], the AC50 was found to be 999 nM.
The like results for `COc1cc(-c2cc(C(=O)N3CCC(C(=O)NC4CCCc5c4ccc(=O)n5C)CC3)n[nH]2)c(Cl)cn1` (racemic) [Example 234, 1-(5-(5-chloro-2-methoxypyridin-4-yl)-1H-pyrazole-3-carbonyl)-N-(1-methyl-2-oxo-1,2,5,6,7,8-hexahydroquinolin-5-yl)piperidine-4-carboxamide] were, in that order, over 10000 nM and 927 nM.
